Reference: patent US20070191490A1, “Withacnistin compounds for treatment of cancer” (priority 2006, published 2007)

How the values were obtained:
phospho-Akt = phospho-Akt levels in A549 cells (Western blotting); assay type: cell-based, human; conditions: 10 μM, 4 hours
Description: (§1) Western blotting. Treated cell samples were lysed in 30 mM HEPES, pH 7.5, 10 mM NaCl, 5 mM MgCl2, 25 mM NaF, 1 mM EGTA, 1% Triton X-100, 10% glycerol, 2 mM sodium orthovanadate, 10 μg/ml aprotinin, 10μ/ml soybean trypsin inhibitor, 25 μg/ml leupeptin, 2 mM PMSF, and 6.4 mg/ml p-nitrophenylphosphate. Phospho-STAT3, phospho-AKT, phospho-Src, and phospho-p42/p44 MAPK antibodies were obtained from Cell Signaling Technologies (Cambridge, Mass., USA). Phospho-JNK and whole STAT3 antibodies were purchased from Santa Cruz Biotechnology (Santa Cruz, Calif., USA); phospho-JAK2 antibody came from Upstate Biotechnology (Lake Placid, N.Y., USA). Membranes were blocked in either 5% milk in phosphate-buffered saline (PBS), pH 7.4, containing 0.1% Tween-20 (PBS-T) or 1% BSA in tris-buffered saline (TBS), pH 7.5, containing 0.1% Tween-20 (TBS-T). Phospho-specific antibodies (excepting P-MAPK and P-JNK) were incubated in 1% BSA in TBS-T while all other antibodies were diluted in 5% milk in PBS-T for either 2 h at room temperature or overnight at 4° C. HRP-conjugated secondary antibodies (Jackson ImmunoResearch, West Grove, Pa., USA) were diluted in 5% milk in either PBS-T or TBS-T at 1:1000 dilution for 1 h at room temperature. […]
(§2) It was next determined whether withacnistin and the Cuc analogs are selective for the JAK2/STAT3 pathway over other signal transduction pathways. […]

STAT1 = assay: Growth factor/cytokine stimulation of STAT1 tyrosine phosphorylation; assay type: cell-based, human; conditions: U266 cells, pretreatment
Description: (§3) Furthermore, it is not know whether Wit suppresses constitutive or stimulated P-STAT3 levels selectively over other STAT family members such as STAT1 and STAT5. To this end, a variety of human cancer cell lines were treated with Wit and stimulated with growth factors or cytokines known to activate STAT family members as described under Methods. […] Pretreatment of U266 cells with W or WM blocked this IL-6 activation of STAT3 in a dose-dependent manner. In contrast, IL-6 activation of STAT1 in these cells was not affected by Wit pretreatment (FIG. 9B).

STAT3 = target: T1, STAT3 (Homo sapiens, UniProt P40763); assay: Growth factor/cytokine stimulation of STAT3 tyrosine phosphorylation; assay type: cell-based
T1 construct: endogenous in cells; host or cells: U266; MDA-MB-468
Description: as §3

phospho-Erk1/2 = phospho-Erk1/2 levels in A549 cells (Western blotting); assay type: cell-based, human; conditions: 10 μM
Description: as §1, §2

Src kinase = Src kinase (Homo sapiens, UniProt P12931); assay: Src kinase inhibition in vitro; assay type: biochemical; conditions: data not shown
Description: The actual biochemical targets for cucurbitacins are not known. […] Possible tyrosine kinases that could be targets are the Src family of kinases. Src kinase itself was not inhibited in vitro by Cuc I (Blaskovich, M. A. et al. Cancer Res., 2003, 63:1270-1279) and withacnistin (data not shown).

T1 sequence (P40763 2-770 limits assumed): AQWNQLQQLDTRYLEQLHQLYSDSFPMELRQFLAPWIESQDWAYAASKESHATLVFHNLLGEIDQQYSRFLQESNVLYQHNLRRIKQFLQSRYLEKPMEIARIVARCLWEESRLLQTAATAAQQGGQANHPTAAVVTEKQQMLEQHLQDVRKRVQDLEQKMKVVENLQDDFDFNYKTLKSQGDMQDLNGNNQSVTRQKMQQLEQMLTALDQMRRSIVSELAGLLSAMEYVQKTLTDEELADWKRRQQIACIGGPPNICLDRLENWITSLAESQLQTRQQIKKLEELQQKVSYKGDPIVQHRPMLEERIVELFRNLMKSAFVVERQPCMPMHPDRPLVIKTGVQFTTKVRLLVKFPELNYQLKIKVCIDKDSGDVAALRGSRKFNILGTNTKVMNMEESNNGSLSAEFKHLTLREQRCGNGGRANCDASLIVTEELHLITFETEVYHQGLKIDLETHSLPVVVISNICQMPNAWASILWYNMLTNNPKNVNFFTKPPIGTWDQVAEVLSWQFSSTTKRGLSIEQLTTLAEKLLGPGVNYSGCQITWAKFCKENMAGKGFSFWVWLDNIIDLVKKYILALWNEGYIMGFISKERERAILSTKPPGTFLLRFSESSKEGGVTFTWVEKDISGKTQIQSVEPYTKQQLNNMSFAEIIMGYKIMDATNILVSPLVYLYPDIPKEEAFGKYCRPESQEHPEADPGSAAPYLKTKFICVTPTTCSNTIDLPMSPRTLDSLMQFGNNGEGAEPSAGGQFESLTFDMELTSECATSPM
Sequence of Src kinase (P12931 whole entry): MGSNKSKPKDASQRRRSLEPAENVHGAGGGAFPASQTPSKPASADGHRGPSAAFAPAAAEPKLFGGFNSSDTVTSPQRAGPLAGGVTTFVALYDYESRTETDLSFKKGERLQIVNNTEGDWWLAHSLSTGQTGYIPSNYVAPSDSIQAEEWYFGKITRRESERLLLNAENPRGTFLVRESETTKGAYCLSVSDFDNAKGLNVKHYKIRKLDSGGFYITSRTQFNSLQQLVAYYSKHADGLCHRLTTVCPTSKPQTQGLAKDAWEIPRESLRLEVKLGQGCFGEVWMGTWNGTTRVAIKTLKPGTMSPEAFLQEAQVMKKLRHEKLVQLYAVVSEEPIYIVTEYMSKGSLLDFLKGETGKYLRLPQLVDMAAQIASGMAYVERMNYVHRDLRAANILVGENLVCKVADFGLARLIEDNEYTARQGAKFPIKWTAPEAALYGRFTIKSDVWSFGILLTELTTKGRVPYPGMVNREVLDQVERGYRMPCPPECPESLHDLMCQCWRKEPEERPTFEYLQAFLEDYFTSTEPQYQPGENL

SMILES	phosphotyrosine levels of Akt (phospho-Akt)	IL-6 activation of STAT1 (STAT1)	EGF activation of STAT3 (STAT3; MDA-MB-468 cells)	IL-6 activation of STAT3 (tyrosine phosphorylation) (STAT3; U266 cells, pretreatment, dose-dependent)	PDGF-stimulated tyrosine phosphorylation of STAT3 (STAT3; pretreatment (FIG. 9D))	levels of phosphorylated Erk1/2 (phospho-Erk1/2)	inhibition of Src kinase in vitro (Src kinase)
CC(=O)OC(C)(C)/C=C/C(=O)[C@](C)(O)[C@H]1[C@H](O)C[C@@]2(C)[C@@H]3CC=C4[C@@H](C[C@H](O)C(=O)C4(C)C)[C@]3(CO)C(=O)C[C@]12C [Cuc A, cucurbitacin A]	little inhibitory activity	–	–	–	–	–	–
CC(=O)OC[C@]12CC[C@H]3[C@@H](C[C@H]4O[C@]45[C@@H](O)C=CC(=O)[C@]35C)[C@@H]1CC[C@@H]2[C@H](C)[C@H]1CC(C)=C(C)C(=O)O1 [withacnistin]	–	not affected	inhibited	blocked	inhibited	significantly increased	not inhibited
